Read-outs that look alike come from different tables or passages of the source. Blank lines part the entries; values can stand above or below the molecule they belong to.
Tests used:
[1] = tested on: doxorubicin induced neutropenia; experiment: Example 3: ANC in doxorubicin induced neutropenia; assay type: in vivo, Male Sprague-Dawley rats; conditions: for ANC level expressed as Percent Naïve Group (% Naïve): doxorubicin 3 mg/kg, plinabulin 7.5 mg/kg in the combination
Protocol: Male Sprague-Dawley rats were first treated with doxorubicin or vehicle saline (control). […] Each test group included 6 rats. The doxorubicin was administered intravenously, and plinabulin was administered through intraperitoneal injection.

[2] = tested on: topotecan induced neutropenia; experiment: Example 5: ANC in topotecan induced neutropenia; assay type: in vivo, adult male Sprague-Dawley rats
Protocol: Topotecan (0.25 or 1.0 mg/kg IV) was administered to adult male Sprague-Dawley rats on Days 1, 3 and 5. Topotecan was administered by intravenous infusion over a period of 30 minutes using a syringe infusion pump and sterile disposable syringes at a dose volume of 10 mL/kg.
Plinabulin (3.75 mg/kg, IP) was dosed 1 hour post topotecan following each topotecan dose. Plinabulin (7.5 mg/kg IP) was dosed 1 hour after the topotecan dose (0.25 mg/kg) on Day 1 only.
Blood collection was performed Days −2, 0, 2, 4, 6, 7, 8, 9, 10 for the pilot and Days −2, 0, 2, 3, 4, 5, 6, 7, 8, 10, 15 for the main study. Blood samples collected on day 3 were analyzed for total and differential blood cell counts.

[3] = tested on: cis-platin induced neutropenia; assay type: in vivo, Male Sprague-Dawley rats
Source text: Male Sprague-Dawley rats were first treated with cis-platin or vehicle saline (control). […] Each test group included 6 rats.
The ANC decreased following cisplatin administration.

[4] = tested on: cyclophosphamide-induced neutropenia; conditions: for ANCs (Mean ± SD): Day −1 (pre-dose baseline), N = 5 rats per group
Protocol: The control sample contained 7.1% Tween 80 (v/v), 25.5% Propylene glycol (v/v), and 67.4% D5W (5% dextrose in water) (v/v). Each test group included 15 rats.
Blood collection was performed for absolute neutrophil counts in blood samples collected at Day −1 (pre-dose), Day 2 (24 h), Day 3 (48 h), Day 10 (9 days) and Day 15 (14 days).
These were expressed as a percentage of the control level on Day 3.

[5] = tested on: neutropenia caused by cyclophosphamide; experiment: Example 1: neutrophil count after cyclophosphamide, plinabulin or the combination; assay type: in vivo, male Sprague-Dawley rats; conditions: all rats, Days −1, 2, 3 and 10; FIG. 3
Protocol: Fifteen rats each were placed in 4 treatment groups according to Table 1. The indicated doses were administered through intraperitoneal injection on Day 1 with Administration 2 being given 1 hour following Administration 1.
D5W is 5% dextrose in water for injection. For groups that included administration of plinabulin, plinabulin is first dissolved in the Tween 80-PG mixture and then diluted with D5W.
The animals were randomized based on body weight and assigned to groups. Before the initiation of dosing, any assigned animals considered unsuitable for use in the study were replaced by alternate animals obtained from the same shipment and maintained under the same environmental conditions.
Blood was collected by jugular venipuncture for Day −1 bleeds and terminally via abdominal aorta under anesthesia for Day 2 (5 rats per Group i.e. total 20 rats), Day 3 (5 rats per Group i.e. total 20 rats) and Day 10 (5 rats per Group i.e. total 20 rats). After collection, the samples were tested for total and differential cell counts. Five rats per group were terminated on Days 2, 3, and 10. Animals were anesthetized with isoflurane (1-5%) and ˜1-2.0 mL of blood will be collected via abdominal aorta. After collection, 0.3 mL was transferred to EDTA tubes and analyzed for total and differential cell counts. […]

time after administration at which neutropenia effect of doxorubicin was seen ([1]; ANC as percentage of naïve animals, severity increased until Day 5): ≤ 24 h
induction of neutropenia ([1]; doxorubicin 3.0 mg/kg): induced a long-lasting neutropenia
duration of ANC decrease following doxorubicin administration ([1]; doxorubicin 3 mg/kg IV single dose): at least 8 days
SMILES: COc1cccc2c1C(=O)c1c(O)c3c(c(O)c1C2=O)C[C@@](O)(C(=O)CO)C[C@@H]3O[C@H]1C[C@H](N)[C@H](O)[C@H](C)O1 [Doxorubicin]
ANC level, Mean ([1]; Day 2, doxorubicin 3.0 mg/kg IV alone): 4.37 ± 10^3/μL
ANC level expressed as Percent Naïve Group (% Naïve) ([1]; Day 2): 52.6%
ANC level, Mean ([1]; Day 3, doxorubicin 3.0 mg/kg IV alone): 0.88 ± 10^3/μL
ANC level expressed as Percent Naïve Group (% Naïve) ([1]; Day 3): 50.9%
ANC level, Mean ([1]; Day 4, doxorubicin 3.0 mg/kg IV alone): 1.02 ± 10^3/μL
ANC level expressed as Percent Naïve Group (% Naïve) ([1]; Day 4): 30.8%
ANC level, Mean ([1]; Day 5, doxorubicin 3.0 mg/kg IV alone): 0.65 ± 10^3/μL
ANC level expressed as Percent Naïve Group (% Naïve) ([1]; Day 5): 19.2%
ANC level, Mean ([1]; Day 8, doxorubicin 3.0 mg/kg IV alone): 0.97 ± 10^3/μL
ANC level expressed as Percent Naïve Group (% Naïve) ([1]; Day 8): 32.3%
ANC level, Mean ([1]; Day −1 (pre-dose), doxorubicin 3.0 mg/kg IV group): 1.79 ± 10^3/μL

induction of neutropenia ([2]; topotecan 1 or 0.25 mg/kg IV on Days 1, 3 and 5, FIGS. 11A, 11B): induced a long-lasting neutropenia
SMILES: CC[C@@]1(O)C(=O)OCc2c1cc1n(c2=O)Cc2cc3c(CN(C)C)c(O)ccc3nc2-1 [topotecan, reference compound]

SMILES: N.N.[Cl][Pt][Cl] [Cisplatin, reference compound]
ANCs ([3]; Day 3 (cisplatin ANC nadir), cisplatin 6.5 mg/kg alone): 0.93 ± 0.28 10^3 Cells/μL
ANCs ([3]; Day −1 (predose), cisplatin 6.5 mg/kg group): 2.03 ± 0.81 10^3 Cells/μL
Day 3 ANCs Expressed as Percent of Baseline (Day −1) ([3]; cisplatin 6.5 mg/kg alone): 45.8%

SMILES: O=P1(N(CCCl)CCCl)NCCCO1 (centres unmarked) [Cyclophosphamide]
ANCs (Mean ± SD) [4]: 1.68 ± 0.19 10^3 Cells/μL
induction of neutropenia ([4]; single intra-peritoneal injection of cyclophosphamide): induced neutropenia in rats at around 48 h

SMILES: CC(C)(C)c1[nH]cnc1/C=c1\[nH]c(=O)/c(=C/c2ccccc2)[nH]c1=O [Plinabulin, (3Z,6Z)-3-Benzylidene-6-{[5-(2-methyl-2-propanyl)-1H-imidazol-4-yl]methylene}-2,5-piperazinedione]
reduction of neutropenia caused by cyclophosphamide, time course [5]: reduced the neutropenia caused by cyclophosphamide
ANCs ([3]; Day 3, plinabulin 4.9 mg/kg alone): 2.42 ± 0.73 10^3 Cells/μL
ANCs ([3]; Day 3, plinabulin 7.5 mg/kg alone): 4.55 ± 1.41 10^3 Cells/μL
ANCs ([3]; Day −1 (predose), plinabulin 4.9 mg/kg group): 1.98 ± 0.47 10^3 Cells/μL
ANCs ([3]; Day −1 (predose), plinabulin 7.5 mg/kg group): 2.12 ± 0.25 10^3 Cells/μL
ANC levels vs predose levels, plinabulin one hour post cisplatin ([3]; plinabulin 2.3 mg/kg, 4.9 mg/kg and 7.5 mg/kg one hour post cisplatin, Day 3): not significantly different from the predose levels
Day 3 ANCs Expressed as Percent of Baseline (Day −1) ([3]; plinabulin 4.9 mg/kg alone): 122.2%
change of ANC levels by plinabulin alone ([3]; plinabulin 4.9 mg/kg alone, Day 3 vs predose): did not change ANC levels
Day 3 ANCs Expressed as Percent of Baseline (Day −1) ([3]; plinabulin 7.5 mg/kg alone): 214.6%
effect of plinabulin on topotecan-induced neutropenia ([2]; plinabulin 3.75 and 7.5 mg/kg IP, one hour after topotecan): significantly reduced the topotecan-induced neutropenia
ANC level, Mean ([1]; Day 2, plinabulin 7.5 mg/kg IP alone): 5.24 ± 10^3/μL
ANC level, Mean ([1]; Day 3, plinabulin 7.5 mg/kg IP alone): 1.98 ± 10^3/μL
ANC level, Mean ([1]; Day 4, plinabulin 7.5 mg/kg IP alone): 2.17 ± 10^3/μL
ANC level, Mean ([1]; Day 5, plinabulin 7.5 mg/kg IP alone): 2.13 ± 10^3/μL
ANC level, Mean ([1]; Day 8, plinabulin 7.5 mg/kg IP alone): 3.18 ± 10^3/μL
ANC level, Mean ([1]; Day −1 (pre-dose), plinabulin 7.5 mg/kg IP group): 2.02 ± 10^3/μL
ANC in plinabulin only treated rats vs naïve animals ([1]; plinabulin 7.5 mg/kg IP alone, all time points): not statistically different from naïve animals at any time point
effect of plinabulin on doxorubicin effect (ANC), Days 2 and 3 ([1]; plinabulin 7.5 mg/kg, Days 2 and 3 post dose): significantly diminished the effect of doxorubicin
effect of plinabulin on doxorubicin-induced neutropenia, days 5 and 8 ([1]; plinabulin 7.5 mg/kg, days 5 and 8): ameliorated the doxorubicin-induced neutropenia to a lesser degree
effect of plinabulin on doxorubicin-induced neutropenia ([1]; plinabulin 3.5 and 7.5 mg/kg IP, one hour after doxorubicin): significantly reduced the doxorubicin-induced neutropenia
ANCs (Mean ± SD) [4]: 1.69 ± 0.21 10^3 Cells/μL

Source: patent US11229642B2, “Composition and method for reducing neutropenia” (BeyondSpring Pharmaceuticals, Inc., priority 2016, dated 2022)
